Converted amounts (≈) assume the structure as drawn. “Also recorded” adds a separate entry of the source. Where two headings read alike, the source gives them in different places.
Assays:
[1] = system: Staphylococcus aureus NCTC 13373 (mecA-positive; methicillin-resistant); assay: In vitro antibacterial activity, MIC (UCL School of Pharmacy assay), MRSA; format: cell-based; settings: for MIC: Staphylococcus aureus
In short: (§1)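 Strains: MRSA NCTC 13373, MSSA ATCC 25923, vanA E. faecalis ATCC 51299. Overnight agar growth suspended in PBS, A600 0.1, diluted 1:100 into isosensitest broth; 2-fold compound dilutions 32–0.03 μg/mL, ≤2% DMSO. Vancomycin QC.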

[2] = system: Enterococcus faecalis ATCC 51299 (vanA-positive; vancomycin-resistant); assay: In vitro antibacterial activity, MIC (UCL), VRE; format: cell-based
In short: as §1

Aqueous solubility = format: physicochemical; settings: for solubility: thermodynamic from solid
LogD7.4 (Chrom Log D) = format: physicochemical; settings: chromatographic system (Chrom Log D); pH 7.4, NEU; read-out: LogD 7.4 (NEU)
[3] = Human plasma protein binding (PPB); format: in vitro ADME; settings: human, plasma
[4] = Human liver microsome intrinsic clearance; format: in vitro ADME; settings: human liver microsomes, NEU; for microsomal CLint: read-out: HLM CLint (NEU)
[5] = Rat hepatocyte intrinsic clearance; format: in vitro ADME; settings: rat hepatocytes, NEU; for hepatocyte CLint: read-out: Rat Hep CLint (NEU)
[6] = HEK293 toxicity, 96-well dose-response (UCL; MTT or resazurin, with or without recovery); format: cell-based, human; settings: human, HEK293 cells; for CC50 at 24 h: read-out: HEK293 CC50; for Dmax spread between recovery and non-recovery conditions at 24 h, 32 μg/mL: read-out: spread of Dmax values comparing recovery and non-recovery conditions
Description: (§2) The importance of balancing potency vs MRSA and cytotoxicity led us to examine a subset of compounds more thoroughly for toxicity against human embryonic kidney cell line HEK293. […] Dmax is a parameter that quantifies toxicity at the highest tested concentration (32 μg/mL for all compounds), calculated as reciprocal percentage of viable cells (100 – viability%), where cells either were allowed to recover or viability was measured immediately after treatment. […] Our efforts focused on trying to replicate the original toxicity experiments (by CO-ADD) with tamoxifen using a protocol modified for use with 96-well plates. Given the variability of protocols and results in the literature,[28] it was important to compare with a standard protocol we have reliably used in our own laboratories.[29]−[33] […] Truly “non-toxic” compounds might be expected to show Dmax < 50% for all experiment variations, e.g., 861. […] A large spread of Dmax values comparing recovery and non-recovery conditions larger than 20% is perhaps indicative of a mechanism of toxicity that persists beyond exposure, i.e., cytotoxic compounds that continue to induce toxicity as cells recover and restart dividing, for example, compounds 865, 870, 871, 980, and 981. […] This variability could be driven by interference of the compounds with the fluorescence readout or resorufin build-up as previously described.[27]
(§3) HEK293 cells (ATCC, UK) at passage 32 were a kind gift from Dr. Ben Allsop from the Translational Research Office at University College London. Cells were tested for mycoplasma using a MycoAlert Detection Kit (Lonza, Switzerland) as per manufacturer instructions, frozen stocks were stored in liquid nitrogen, and cells were re-tested whenever a new aliquot was thawed.
(§4) Cells were maintained in DMEM (Sigma-Aldrich, UK) supplemented with 10% heat-inactivated FBS (Sigma-Aldrich, UK), 1% GlutaMax (ThermoFisher, UK), and 1% sodium pyruvate (Lonza, UK) without antibiotics in an incubator at 37 °C and 5% CO2. Media was changed every 2 days, and cells were passaged every 3–4 days at a subcultivation ratio of 1:10, by detaching the cells with phenol-free TrypLE Express (ThermoFisher, UK), after washing with HBSS Ca^2+/Mg^2+ (ThermoFisher, UK). Up to 55 passages were used throughout the experiments.
(§5) (a) Cell seeding: At subculture, a dilute solution of cells was counted using Trypan Blue (Sigma-Aldrich, UK) and a hemocytometer. Cells were further diluted to 7000 or 50 000 cells/mL for experiments.
(§6) For recovery experiments, 700 cells (100 μL) were seeded in 96-well plates and incubated for 48 h while cells reached exponential phase.
(§7) For non-recovery experiments, 5000 cells (100 μL) were seeded in 96-well plates and incubated for 48 h while cells reached confluence. This is the same number of cells as per the CO-ADD protocol where 384-well plates were used, but we extended the growth time to 48 h to produce a similar confluency.
(§8) Stock solutions were diluted 100 times (to 1% DMSO) to 32 μg/mL in full medium (vortexed briefly) and then serially diluted using a digital pipet (Explorer, Eppendorf, Germany) at a dilution factor of 2 to a final concentration of […].
(§9) (c) Dosing experiments: At the specified time after seeding, media was removed from cells, cells were washed with HBSS Ca^2+/Mg^2+ (100 μL), and 100 μL of diluted compounds were added as per Supporting Information - Biology, Figure S4, and incubated for 24 h.
(§10) After treatment, solutions were removed, and cells were washed with HBSS Ca^2+/Mg^2+. For non-recovery experiments, viability was determined immediately as described below.
(§11) For recovery experiments, fresh media was added to plates (100 μL) and cells were returned to the incubator for another 72 h, after which viability was recorded as described below.
(§12) i. MTT assay: 3-[4,5-Dimethylthiazol-2-yl]-2,5-diphenyltetrazolium bromide (MTT) (Sigma-Aldrich, UK) was dissolved in sterile PBS at 5 mg/mL with sonication (20 min), protected from light. […]

[7] = system: S. aureus ATCC 25923 (methicillin-susceptible); assay: In vitro antibacterial activity, MIC (UCL), MSSA; format: cell-based, Staphylococcus aureus; settings: for MIC: Staphylococcus aureus
In short: as §1

HEK293 cells = assay: HEK293 toxicity, 96-well dose-response (UCL; MTT or resazurin, with or without recovery); format: cell-based, human; settings: for spread of Dmax values comparing recovery and non-recovery conditions: 32 μg/mL
Description: as §2, §3, §4, §5, §6, §7, §8, §9, §10, §11, §12

[8] = system: MRC-5SV2 (human lung fibroblast cell line); assay: Toxicity against MRC-5SV2; format: cell-based
Description: (§13) ADME and toxicity for compounds were measured according to procedures outlined in the manuscript submitted in parallel to this one;2 other procedures were used for those compounds analysed by Monash University (in vitro ADME) or UCL (toxicity), both described in the main

[9] = system: PMM (primary mouse macrophages); assay: Toxicity against PMM; format: cell-based
Description: as §13

[10] = NEU, read-out: Aqueous Solubility (NEU)
[11] = human plasma, NEU, read-out: Human PPB (NEU) (converted)

Row | SMILES | MIC ([1]; UCL, read-out: MRSA MIC (UCL)) | MIC ([2]; read-out: VRE MIC (UCL)) | solubility (Aqueous solubility; [10]) | fraction unbound [3, 11] | CC50 at 24 h [6] | MIC ([1]; read-out: MRSA MIC) | MIC ([2]; read-out: VRE MIC) | Dmax spread between recovery and non-recovery conditions at 24 h, 32 μg/mL [6] | further results
1 | c1cncc(-c2nc3n(c2-c2ccc4occc4c2)CCC3)c1 [OSA_000861] | > 32 mg/L | > 32 mg/L | 344 µM (≈ 104 µg/mL) | 0.015 | > 32 mg/L |  |  |  | chromatographic logD (LogD7.4 (Chrom Log D)): 3.2; microsomal CLint [4]: 35.5 µL/min/mg; hepatocyte CLint [5]: 40.8 µL/min/1e6 cells
2 | c1cc(-c2nc3n(c2-c2ccc4occc4c2)CCC3)ccn1 [OSA_000862] | > 32 mg/L | > 32 mg/L | 89 µM (≈ 26.8 µg/mL) | 0.017 | > 32 mg/L |  |  |  | chromatographic logD (LogD7.4 (Chrom Log D)): 3.2; microsomal CLint [4]: 36.8 µL/min/mg; hepatocyte CLint [5]: 44.5 µL/min/1e6 cells
3 | Cc1ccc(-c2c(-c3ccccn3)nc3n2CCC3)cc1 [OSA_000865] | 4 mg/L (≈ 14.5 µM) | 16 mg/L (≈ 58.1 µM) |  | 0.084 | 2.1 mg/L (≈ 7.63 µM) |  |  |  | MIC ([7]; read-out: MSSA MIC (UCL)): 1 mg/L (≈ 3.63 µM); Aqueous Solubility (NEU) (Aqueous solubility; NEU): 32 µM; HLM CLint (NEU) [4]: 82 uL/min/mg protein; Rat Hep CLint (NEU) [5]: 49.2 uL/min/10x6 cells
4 | c1ccc(-c2nc3n(c2-c2ccc4occc4c2)CCC3)cc1 [OSA_000869] | > 32 mg/L | > 32 mg/L | 21 µM (≈ 6.31 µg/mL) | 0.0031 | 13.7 mg/L (≈ 45.6 µM) |  |  |  | chromatographic logD (LogD7.4 (Chrom Log D)): 4.2; microsomal CLint [4]: 224 µL/min/mg; hepatocyte CLint [5]: 34.5 µL/min/1e6 cells
5 | c1ccc(-c2c(-c3ccccn3)nc3n2CCC3)cc1 [OSA_000870] | 32 mg/L (≈ 122 µM) | > 32 mg/L | 179 µM (≈ 46.8 µg/mL) | 0.15 | 3.6 mg/L (≈ 13.8 µM) |  |  |  | HLM CLint (NEU) [4]: 64 uL/min/mg protein; Rat Hep CLint (NEU) [5]: 25.9 uL/min/10x6 cells
6 | c1ccc(-c2nc3ccccn3c2-c2ccc3sccc3c2)nc1 [OSA_000871] | 4 mg/L (≈ 12.2 µM) | 8 mg/L (≈ 24.4 µM) | 6 µM (≈ 1.96 µg/mL) | 0.0074 | 5.5 mg/L (≈ 16.8 µM) |  |  |  | chromatographic logD (LogD7.4 (Chrom Log D)): 3.3; microsomal CLint [4]: 105 µL/min/mg; hepatocyte CLint [5]: > 300 µL/min/1e6 cells
7 | c1cncc(-c2nc3n(c2-c2ccc4occc4c2)CCC3)c1 [compound 861] |  |  |  |  |  | > 32 mg/L | > 32 mg/L |  | activity against MRSA, in words [1]: inactive; HEK293 toxicity classification, in words (HEK293 cells): least toxic; Dmax (100 – viability%) (HEK293 cells; at highest tested concentration 32 μg/mL, all experiment variations): < 50%
8 | c1cc(-c2nc3n(c2-c2ccc4occc4c2)CCC3)ccn1 [compound 862] |  |  |  |  |  | > 32 mg/L | > 32 mg/L |  | activity against MRSA, in words [1]: inactive; HEK293 toxicity classification, in words (HEK293 cells): least toxic; also recorded: non-toxic; toxicity in the acute exposure by MTT (HEK293 cells; no recovery, MTT): more than 50%
9 | Cc1ccc(-c2c(-c3ccccn3)nc3n2CCC3)cc1 [compound 865] |  |  |  |  |  | 4 mg/L (≈ 14.5 µM) | 16 mg/L (≈ 58.1 µM) | > 20% | MIC ([1]; 16 h, read-out: MRSA MIC): 4 mg/L (≈ 14.5 µM); MIC ([7]; read-out: MSSA MIC): 1 mg/L (≈ 3.63 µM); solubility (Aqueous solubility; read-out: Aqueous Solubility): 32 µM (≈ 8.81 µg/mL); fraction unbound ([3]; read-out: Human PPB (converted)): 0.08
10 | c1ccc(-c2nc3n(c2-c2ccc4occc4c2)CCC3)cc1 [compound 869] |  |  |  |  |  | > 32 mg/L | > 32 mg/L |  | activity against MRSA, in words [1]: inactive; HEK293 toxicity classification, in words (HEK293 cells): least toxic; spread of Dmax values comparing recovery and non-recovery conditions (HEK293 cells): small difference
11 | c1ccc(-c2c(-c3ccccn3)nc3n2CCC3)cc1 [compound 870] |  |  |  |  |  | 32 mg/L (≈ 122 µM) | > 32 mg/L | > 20% | 
12 | c1ccc(-c2nc3ccccn3c2-c2ccc3sccc3c2)nc1 [compound 871] |  |  |  |  |  | 4 mg/L (≈ 12.2 µM) | 8 mg/L (≈ 24.4 µM) | > 20% | 
13 | Fc1ccc(N(CC2CC2)c2c(-c3ccccn3)nc3ccccn23)cc1 [compound 979] |  |  |  |  |  | 2 mg/L (≈ 5.58 µM) | 4 mg/L (≈ 11.2 µM) |  | MIC ([7]; read-out: MSSA MIC): 2 mg/L (≈ 5.58 µM); VRE MIC [2]: 4 mg/L; MRC5 TC50 [8]: 2.8 mg/L; PMM TC50 [9]: 1.4 mg/L; spread of Dmax values comparing recovery and non-recovery conditions (HEK293 cells): small difference
14 | COc1ccc2nc(-c3ccccn3)c(N(C)c3ccc(F)cc3)n2c1 [compound 980] |  |  |  |  |  | 4 mg/L (≈ 11.5 µM) | 8 mg/L (≈ 23 µM) | > 20% | MIC ([7]; read-out: MSSA MIC): 4 mg/L (≈ 11.5 µM); MRC5 TC50 [8]: 0.7 mg/L; PMM TC50 [9]: 2.8 mg/L
15 | CCN(c1ccc(F)cc1)c1c(-c2ccccn2)nc2ccccn12 [compound 981] |  |  |  |  |  | 2 mg/L (≈ 6.02 µM) | 8 mg/L (≈ 24.1 µM) | > 20% | MIC ([7]; read-out: MSSA MIC): 2 mg/L (≈ 6.02 µM); MRC5 TC50 [8]: 1.6 mg/L; PMM TC50 [9]: 2.7 mg/L
16 | Fc1ccc(Nc2c(-c3ccccn3)nc3sccn23)cc1 [compound 984] |  |  |  |  |  |  |  |  | MRSA MIC [1]: 8 mg/L; MSSA MIC [7]: 4 mg/L; VRE MIC [2]: 8 mg/L; MRC5 TC50 [8]: 2.0 mg/L; PMM TC50 [9]: 9.9 mg/L; spread of Dmax values comparing recovery and non-recovery conditions (HEK293 cells): small difference
